# From ChEMBL document CHEMBL5532720, “A Potent Solution for Tumor Growth and Angiogenesis Suppression via an ELR+CXCL-CXCR1/2 Pathway Inhibitor” (ACS Med Chem Lett, 2024)
# pIC50: −log10 of the molar value. The source made the active and inactive calls. The calls are words filed in the database; no cut-off is given here.
# Key:
# [1] = Oral bioavailability in NOD SCID mouse at 200 mg/kg; format: ADME, organism-based; settings: in vivo
# [2] = Stability in human hepatocytes assessed as intrinsic clearance measured per 10^6 cells; format: ADME, cell-based, Hepatocyte; settings: read-out: CLH
# [3] = Aqueous solubility of compound in water; format: physicochemical
# [4] = Half-life in NOD SCID mouse at 100 mg/kg, po; format: ADME, organism-based; settings: in vivo
# [5] = Genotoxicity in Salmonella typhimurium TA1537 upto 100 uM in presence of S9 fraction by Ames test; format: toxicity, subcellular; settings: salmonella enterica subsp. enterica serovar typhimurium, s9, 100 µM
# [6] = Tmax in NOD SCID mouse at 100 mg/kg, po; format: ADME, organism-based; settings: in vivo
# [7] = target: Eukaryotic elongation factor 2 kinase (Homo sapiens) (UniProt O00418); test: Inhibition of EEF2K (unknown origin) at 10 uM in presence of ATP at Km concentration
# [8] = target: cGMP-dependent protein kinase 1 (Homo sapiens) (UniProt Q13976); test: Inhibition of PRKG1 (unknown origin) at 10 uM in presence of ATP at Km concentration
# [9] = Volume of distribution in NOD SCID mouse at 1 mg/kg, iv; format: ADME, organism-based; settings: in vivo
# [10] = Lipophilicity, logD of compound at pH 7.4; format: physicochemical; settings: buffer
# [11] = target: CDK7/Cyclin H/MNAT1 (Homo sapiens) (UniProt P51946+P50613+P51948); test: Inhibition of CDK7/cyclin H/MNAT1 (unknown origin) at 10 uM in presence of ATP at Km concentration; format: protein-complex assay
# [12] = target: Receptor-interacting serine/threonine-protein kinase 2 (Homo sapiens) (UniProt O43353); test: Inhibition of RIPK2 (unknown origin) at 10 uM in presence of ATP at Km concentration
# [13] = Antiproliferative activity against human Sunitinib-resistant 786-R cells incubated for 48 hrs by XTT assay; format: functional, cell-based
# [14] = Antiproliferative activity against human Cisplatin and radiotherapy resistant CAL33RR cells incubated for 48 hrs by XTT assay; format: functional, cell-based
# [15] = target: Mitogen-activated protein kinase kinase kinase 3 (Homo sapiens) (UniProt Q99759); test: Inhibition of MAP3K3 (unknown origin) at 10 uM in presence of ATP at Km concentration
# [16] = target: Ephrin type-A receptor 5 (Homo sapiens) (UniProt P54756); test: Inhibition of EPHA5 (unknown origin) at 10 uM in presence of ATP at Km concentration
# [17] = Aqueous solubility of compound in SGF at pH 2; format: ADME
# [18] = target: Ephrin type-B receptor 2 (Homo sapiens) (UniProt P29323); test: Inhibition of EPHB2 (unknown origin) at 10 uM in presence of ATP at Km concentration
# [19] = target: Serine/threonine-protein kinase N2 (Homo sapiens) (UniProt Q16513); test: Inhibition of PKN2 (unknown origin) at 10 uM in presence of ATP at Km concentration
# TIME [20] = test: Antiangiogenic activity in human TIME cells assessed as disruption of blood vessel network at 2.5 uM incubated for 24 hrs; format: functional, cell-based
# [21] = Stability in mouse plasma assessed as half-life; format: ADME, cell-free
# [22] = target: Inhibitor of nuclear factor kappa-B kinase subunit beta (Homo sapiens) (UniProt O14920); test: Inhibition of IKBKB (unknown origin) at 10 uM in presence of ATP at Km concentration
# [23] = Antiproliferative activity against human Cisplatin and radiotherapy resistant CAL27RR cells incubated for 48 hrs by XTT assay; format: functional, cell-based
# [24] = Protein binding in mouse plasma; format: ADME, cell-free; settings: read-out: PPB (converted)
# [25] = target: Interleukin-1 receptor-associated kinase 4 (Homo sapiens) (UniProt Q9NWZ3); test: Inhibition of IRAK4 (unknown origin) at 10 uM in presence of ATP at Km concentration
# [26] = target: Ephrin type-A receptor 2 (Homo sapiens) (UniProt P29317); test: Inhibition of EPHA2 (unknown origin) at 10 uM in presence of ATP at Km concentration
# [27] = Tmax in NOD SCID mouse at 200 mg/kg, po; format: ADME, organism-based; settings: in vivo
# [28] = target: Phosphatidylinositol 4-kinase beta (Homo sapiens) (UniProt Q9UBF8); test: Inhibition of PI4KB (unknown origin) at 10 uM in presence of ATP at Km concentration
# [29] = Stability in human hepatocytes assessed as half-life; format: ADME, cell-based, Hepatocyte
# [30] = target: Mitogen-activated protein kinase kinase kinase 20 (Homo sapiens) (UniProt Q9NYL2); test: Inhibition of ZAK (unknown origin) at 10 uM in presence of ATP at Km concentration
# [31] = target: Interleukin-8 receptors, CXCR1/CXCR2 (Homo sapiens) (UniProt P25025+P25024); test: Inhibition of CXCR1/2 pathway in human A498 cells assessed as reduction in ERK phosphorylation at 2.5 uM incubated for 24 to 48 hrs by immunoblot analysis; format: functional, cell-based; settings: time 24-48 hrs
# A498 [32] = test: Effect on VEGFA production in human A498 cells at 1 to 2.5 uM incubated for 48 hrs by ELISA; format: functional, cell-based; settings: dose 1-2.5 µM
# [33] = Cmax in NOD SCID mouse at 200 mg/kg, po; format: ADME, organism-based; settings: in vivo
# [34] = target: Aurora kinase B (Homo sapiens) (UniProt Q96GD4); test: Inhibition of AURKB (unknown origin) at 10 uM in presence of ATP at Km concentration
# [35] = AUC (0 to infinity) in NOD SCID mouse at 50 mg/kg, po; format: ADME, organism-based; settings: in vivo
# TIME [36] = test: Inhibition of CXCL8-dependent cell migration in human TIME cells at 0.5 uM incubated for 24 hrs by crystal violet staining based analysis; format: functional
# [37] = system: Cisplatin and radiotherapy resistant CAL33RR; test: Inhibition of cell invasion in human Cisplatin and radiotherapy resistant CAL33RR cells cultured as 3D spheroid at 5 uM measured after 7 days by light microscopic imaging analysis; format: functional, cell-based; settings: time 7.0 day
# [38] = target: Inactive tyrosine-protein kinase PEAK1 (Homo sapiens) (UniProt Q9H792); test: Inhibition of PEAK1 (unknown origin) at 10 uM in presence of ATP at Km concentration
# [39] = target: Mitogen-activated protein kinase 9 (Homo sapiens) (UniProt P45984); test: Inhibition of MAPK9 (unknown origin) at 10 uM in presence of ATP at Km concentration
# A498 [40] = test: Inhibition of CXCL8-induced cell migration in human A498 cells at 0.5 uM incubated for 24 hrs by crystal violet staining based analysis relative to control; format: functional
# [41] = target: Ribosomal protein S6 kinase alpha-4 (Homo sapiens) (UniProt O75676); test: Inhibition of RPS6KA4 (unknown origin) at 10 uM in presence of ATP at Km concentration
# A498 [42] = test: Downregulation of CXCL1 mRNA expression in human A498 cells at 1 to 2.5 uM incubated for 48 hrs by qPCR analysis; format: functional, cell-based; settings: dose 1-2.5 µM
# Sequence of Serine/threonine-protein kinase N2 (Homo sapiens) (Q16513 whole entry, looked up): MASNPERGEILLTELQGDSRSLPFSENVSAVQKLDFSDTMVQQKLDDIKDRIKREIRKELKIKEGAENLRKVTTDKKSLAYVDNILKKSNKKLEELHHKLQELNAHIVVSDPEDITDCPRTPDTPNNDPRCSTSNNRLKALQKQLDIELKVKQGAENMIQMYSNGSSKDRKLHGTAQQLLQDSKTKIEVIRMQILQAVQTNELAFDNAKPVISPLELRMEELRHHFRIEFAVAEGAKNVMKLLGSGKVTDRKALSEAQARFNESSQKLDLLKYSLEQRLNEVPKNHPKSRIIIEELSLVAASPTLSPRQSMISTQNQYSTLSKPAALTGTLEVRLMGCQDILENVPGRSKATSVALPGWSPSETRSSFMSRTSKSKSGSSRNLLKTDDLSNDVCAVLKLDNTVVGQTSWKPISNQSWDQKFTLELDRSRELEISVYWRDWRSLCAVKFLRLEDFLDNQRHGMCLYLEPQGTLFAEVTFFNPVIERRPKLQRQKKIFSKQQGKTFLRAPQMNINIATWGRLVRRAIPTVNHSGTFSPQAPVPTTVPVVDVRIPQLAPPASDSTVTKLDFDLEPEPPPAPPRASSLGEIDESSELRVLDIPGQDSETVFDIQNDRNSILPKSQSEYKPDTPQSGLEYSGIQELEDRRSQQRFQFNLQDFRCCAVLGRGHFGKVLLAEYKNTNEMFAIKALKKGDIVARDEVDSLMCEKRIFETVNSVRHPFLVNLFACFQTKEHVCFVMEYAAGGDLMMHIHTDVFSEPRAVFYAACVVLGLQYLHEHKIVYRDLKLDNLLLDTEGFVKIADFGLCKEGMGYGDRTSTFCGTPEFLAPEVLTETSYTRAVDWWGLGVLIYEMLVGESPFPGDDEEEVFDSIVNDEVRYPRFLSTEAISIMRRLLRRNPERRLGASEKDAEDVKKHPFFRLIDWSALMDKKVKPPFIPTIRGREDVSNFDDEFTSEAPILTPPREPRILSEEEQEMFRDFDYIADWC
# Sequence of Mitogen-activated protein kinase kinase kinase 20 (Homo sapiens) (Q9NYL2 2-800 limits assumed): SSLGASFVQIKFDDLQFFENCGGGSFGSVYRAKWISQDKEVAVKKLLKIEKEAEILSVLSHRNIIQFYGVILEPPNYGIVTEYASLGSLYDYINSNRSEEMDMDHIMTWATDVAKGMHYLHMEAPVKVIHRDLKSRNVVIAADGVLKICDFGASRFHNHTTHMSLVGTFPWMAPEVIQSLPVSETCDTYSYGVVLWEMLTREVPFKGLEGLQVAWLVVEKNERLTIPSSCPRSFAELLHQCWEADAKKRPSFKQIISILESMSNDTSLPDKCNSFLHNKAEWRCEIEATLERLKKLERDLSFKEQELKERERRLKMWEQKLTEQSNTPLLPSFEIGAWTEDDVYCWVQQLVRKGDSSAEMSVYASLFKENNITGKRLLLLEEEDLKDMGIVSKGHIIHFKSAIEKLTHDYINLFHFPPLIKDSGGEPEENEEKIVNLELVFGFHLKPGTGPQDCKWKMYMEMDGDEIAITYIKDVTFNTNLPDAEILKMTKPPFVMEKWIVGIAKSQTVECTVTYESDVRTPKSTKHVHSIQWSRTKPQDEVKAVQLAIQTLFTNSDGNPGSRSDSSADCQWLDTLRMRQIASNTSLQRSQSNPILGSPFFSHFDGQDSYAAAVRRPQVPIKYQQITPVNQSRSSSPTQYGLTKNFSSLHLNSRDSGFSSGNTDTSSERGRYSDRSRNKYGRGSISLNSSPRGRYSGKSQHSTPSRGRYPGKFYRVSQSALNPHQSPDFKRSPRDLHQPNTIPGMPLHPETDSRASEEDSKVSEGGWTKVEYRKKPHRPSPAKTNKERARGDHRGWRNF
# Sequence of Phosphatidylinositol 4-kinase beta (Homo sapiens) (Q9UBF8 2-816 limits assumed): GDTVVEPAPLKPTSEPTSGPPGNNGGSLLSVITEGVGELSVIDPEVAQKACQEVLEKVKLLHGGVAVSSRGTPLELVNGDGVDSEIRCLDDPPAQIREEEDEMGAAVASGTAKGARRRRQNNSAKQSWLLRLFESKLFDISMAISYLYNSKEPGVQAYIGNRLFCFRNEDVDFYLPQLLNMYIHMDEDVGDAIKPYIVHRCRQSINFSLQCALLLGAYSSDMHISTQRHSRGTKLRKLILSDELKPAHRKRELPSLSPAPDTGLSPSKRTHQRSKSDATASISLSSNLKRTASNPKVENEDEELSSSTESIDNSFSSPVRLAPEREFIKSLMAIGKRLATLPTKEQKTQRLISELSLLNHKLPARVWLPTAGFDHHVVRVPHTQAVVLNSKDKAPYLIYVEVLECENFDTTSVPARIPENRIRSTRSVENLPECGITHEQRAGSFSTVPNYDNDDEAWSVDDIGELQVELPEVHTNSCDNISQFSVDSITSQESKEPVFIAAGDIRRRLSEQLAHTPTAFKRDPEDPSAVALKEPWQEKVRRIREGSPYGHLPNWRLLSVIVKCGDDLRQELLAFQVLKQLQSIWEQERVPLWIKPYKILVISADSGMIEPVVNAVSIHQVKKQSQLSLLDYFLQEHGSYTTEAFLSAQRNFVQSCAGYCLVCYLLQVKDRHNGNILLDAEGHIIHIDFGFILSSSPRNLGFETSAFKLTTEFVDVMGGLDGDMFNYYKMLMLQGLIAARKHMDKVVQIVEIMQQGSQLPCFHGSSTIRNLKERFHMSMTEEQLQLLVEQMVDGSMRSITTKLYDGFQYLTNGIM
# Sequence of Interleukin-1 receptor-associated kinase 4 (Homo sapiens) (Q9NWZ3 whole entry): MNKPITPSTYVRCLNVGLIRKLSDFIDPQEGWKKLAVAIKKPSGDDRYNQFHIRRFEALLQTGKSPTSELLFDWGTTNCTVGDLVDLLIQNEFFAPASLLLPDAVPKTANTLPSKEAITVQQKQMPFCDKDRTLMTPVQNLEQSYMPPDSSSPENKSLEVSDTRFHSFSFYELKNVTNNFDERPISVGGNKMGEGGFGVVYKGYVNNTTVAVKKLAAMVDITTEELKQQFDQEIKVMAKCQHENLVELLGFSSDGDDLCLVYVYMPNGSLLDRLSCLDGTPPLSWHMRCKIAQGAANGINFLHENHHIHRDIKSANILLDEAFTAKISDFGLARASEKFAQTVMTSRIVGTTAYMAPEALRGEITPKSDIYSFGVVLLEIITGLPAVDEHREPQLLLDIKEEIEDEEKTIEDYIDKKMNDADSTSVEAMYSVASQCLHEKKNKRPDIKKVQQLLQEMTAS
# Sequence of Ephrin type-A receptor 2 (Homo sapiens) (P29317 whole entry): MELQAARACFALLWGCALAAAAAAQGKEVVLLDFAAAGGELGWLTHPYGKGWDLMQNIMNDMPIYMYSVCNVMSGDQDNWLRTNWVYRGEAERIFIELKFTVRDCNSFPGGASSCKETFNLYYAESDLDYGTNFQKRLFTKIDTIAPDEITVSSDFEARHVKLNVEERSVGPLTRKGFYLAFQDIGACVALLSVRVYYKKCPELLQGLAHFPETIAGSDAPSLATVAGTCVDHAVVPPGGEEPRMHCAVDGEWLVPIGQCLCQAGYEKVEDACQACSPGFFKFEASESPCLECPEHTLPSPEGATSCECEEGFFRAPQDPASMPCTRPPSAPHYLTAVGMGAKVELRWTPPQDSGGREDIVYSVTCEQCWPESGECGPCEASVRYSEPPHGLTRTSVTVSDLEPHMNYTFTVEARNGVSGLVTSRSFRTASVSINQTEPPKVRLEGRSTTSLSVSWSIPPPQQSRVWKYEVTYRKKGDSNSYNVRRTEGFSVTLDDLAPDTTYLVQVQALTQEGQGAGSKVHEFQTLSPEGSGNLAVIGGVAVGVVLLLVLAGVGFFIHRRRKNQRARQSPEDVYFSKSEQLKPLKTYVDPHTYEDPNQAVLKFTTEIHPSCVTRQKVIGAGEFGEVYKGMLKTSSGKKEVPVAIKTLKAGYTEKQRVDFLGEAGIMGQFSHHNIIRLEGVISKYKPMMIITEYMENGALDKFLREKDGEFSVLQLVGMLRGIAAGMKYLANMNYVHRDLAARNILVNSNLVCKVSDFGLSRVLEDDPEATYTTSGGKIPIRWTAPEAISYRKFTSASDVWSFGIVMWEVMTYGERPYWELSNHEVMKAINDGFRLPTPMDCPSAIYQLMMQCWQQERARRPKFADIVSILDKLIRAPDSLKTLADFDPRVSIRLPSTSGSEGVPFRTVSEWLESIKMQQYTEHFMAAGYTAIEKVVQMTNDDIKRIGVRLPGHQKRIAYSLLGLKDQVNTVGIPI
# Sequence of Inhibitor of nuclear factor kappa-B kinase subunit beta (Homo sapiens) (O14920 whole entry): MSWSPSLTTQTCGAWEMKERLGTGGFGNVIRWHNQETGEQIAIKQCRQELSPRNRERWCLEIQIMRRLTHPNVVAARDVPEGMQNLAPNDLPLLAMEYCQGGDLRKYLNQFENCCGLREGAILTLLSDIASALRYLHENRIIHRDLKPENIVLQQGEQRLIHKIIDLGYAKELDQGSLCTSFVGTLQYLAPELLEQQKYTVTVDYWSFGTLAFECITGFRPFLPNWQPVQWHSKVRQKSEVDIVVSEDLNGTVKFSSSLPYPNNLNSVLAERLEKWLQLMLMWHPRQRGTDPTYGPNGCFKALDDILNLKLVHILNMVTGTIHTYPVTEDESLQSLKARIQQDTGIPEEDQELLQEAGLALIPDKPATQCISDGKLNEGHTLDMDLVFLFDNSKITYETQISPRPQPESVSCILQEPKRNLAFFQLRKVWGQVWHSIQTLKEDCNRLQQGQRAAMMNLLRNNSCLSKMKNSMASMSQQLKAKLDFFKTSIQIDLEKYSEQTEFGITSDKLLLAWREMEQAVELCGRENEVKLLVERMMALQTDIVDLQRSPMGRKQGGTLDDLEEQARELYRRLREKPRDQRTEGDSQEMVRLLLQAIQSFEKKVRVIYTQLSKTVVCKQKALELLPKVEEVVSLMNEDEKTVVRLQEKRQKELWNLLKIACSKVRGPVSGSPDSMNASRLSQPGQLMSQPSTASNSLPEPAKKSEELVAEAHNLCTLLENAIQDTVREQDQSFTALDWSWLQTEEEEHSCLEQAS
smiles,measurement,setting,value
O=C(Nc1cc(Cl)cc(Cl)c1)Nc1nc2ccc([N+](=O)[O-])cc2s1,bioavailability,[1],22%
same,hepatocyte CLint,[2],35.9 µL/min/1e6 cells
same,solubility,[3],1.2 µM
same,half-life,[4],2.2 h
same,Activity,[5],Non-Toxic
same,Tmax,[6],1.5 h
same,inhibition,[7],inactive
same,inhibition,[8],inactive
same,Vd,[9],1 L/kg
same,logD,[10],2.86
same,inhibition,[11],inactive
same,inhibition,[12],inactive
same,pIC50,[13],5.52
same,pIC50,[14],5.40
same,inhibition,[15],inactive
same,inhibition,[16],inactive
same,solubility,[17],3.4 µM
same,inhibition,[18],inactive
same,inhibition,[19],inactive
same,Activity,TIME [20],Active
same,half-life,[21],> 4.82 h
same,inhibition,[22],inactive
same,pIC50,[23],5.60
same,fraction unbound,[24],0.004
same,inhibition,[25],inactive
same,inhibition,[26],inactive
same,Tmax,[27],1 h
same,inhibition,[28],inactive
same,half-life,[29],0.643 h
same,inhibition,[30],inactive
same,inhibition,[31],Active
same,Activity,A498 [32],inactive
same,Cmax,[33],5.2 µM
same,inhibition,[34],inactive
same,AUC(0-inf),[35],8390 ng·h/mL
same,inhibition,TIME [36],Active
same,inhibition,[37],Active
same,inhibition,[38],inactive
same,inhibition,[39],inactive
same,inhibition at 0.5 µM,A498 [40],> 50%
same,inhibition,[41],inactive
same,Activity,A498 [42],Active
